From PubChem BioAssay (NCI)
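These data come from cells grown in 96-well plates and exposed to compound for 48 hours at five concentrations. GI50 is the concentration that inhibits growth by half. The concentration for full growth arrest is given as TGI.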

What was measured:
Assay in all cases: NCI anticancer screen, dose series, 48 h
786-0 renal = system: 786-0 renal
HCT-15 colon = system: HCT-15 colon
HL-60(TB) leukemia = system: HL-60(TB) leukemia
HOP-62 NSCLC = system: HOP-62 NSCLC
RXF 393 renal = system: RXF 393 renal
SF-268 CNS = system: SF-268 CNS
SN12C renal = system: SN12C renal
SNB-75 CNS = system: SNB-75 CNS
SR leukemia = system: SR leukemia
BT-549 breast = system: BT-549 breast

Structure (SMILES) | TGI (786-0 renal) | TGI (HCT-15 colon) | TGI (HL-60(TB) leukemia) | TGI (HOP-62 NSCLC) | TGI (RXF 393 renal) | TGI (SF-268 CNS) | TGI (SN12C renal) | TGI (SNB-75 CNS) | TGI (SR leukemia) | TGI (BT-549 breast) | GI50 (BT-549 breast) | GI50 (HCT-15 colon) | GI50 (HL-60(TB) leukemia) | GI50 (HOP-62 NSCLC) | GI50 (RXF 393 renal) | GI50 (SF-268 CNS) | GI50 (SNB-75 CNS) | GI50 (SR leukemia)
O=[N+]([O-])c1cccc([N+](=O)[O-])c1Cl | > 100 µM | 31.6 µM | 24.2 µM | > 100 µM | 38.3 µM | 46.5 µM | 79.9 µM | 67.5 µM | > 100 µM | – | – | – | – | – | – | – | – | –
CC(=O)NCC1OC2COC(c3ccccc3)OC2C2N=C(c3ccccc3)OC12 (centres undefined) | > 100 µM | > 100 µM | 52.9 µM | > 100 µM | > 100 µM | > 100 µM | > 100 µM | > 100 µM | – | > 100 µM | – | – | – | – | – | – | – | –
Cn1c(O)c(/C=N/c2ncccn2)c(=O)[nH]c1=O | > 100 µM | > 100 µM | > 100 µM | > 100 µM | – | > 100 µM | > 100 µM | > 100 µM | – | – | – | – | – | – | – | – | – | –
Cc1cc(C)c(C#N)c(SC(=S)NC(=O)c2ccccc2)n1 | > 100 µM | > 100 µM | – | > 100 µM | > 100 µM | > 100 µM | > 100 µM | > 100 µM | > 100 µM | > 100 µM | – | – | – | – | – | – | – | –
CC(C)C(=O)/C=C/c1ccccc1 | > 100 µM | – | > 100 µM | – | > 100 µM | > 100 µM | > 100 µM | > 100 µM | > 100 µM | – | – | – | – | – | – | – | – | –
O=C(O)c1cc(Nc2c(O)c3c(c(O)c2Cl)C(=O)C=CC3=O)ccc1O | > 10 µM | > 10 µM | – | > 10 µM | – | > 10 µM | > 10 µM | > 10 µM | – | > 10 µM | – | – | – | – | – | – | – | –
Cc1cc2nc3c(N)nn(CCN(C)C)c3nc2cc1C | > 100 µM | > 100 µM | – | > 100 µM | > 100 µM | > 100 µM | > 100 µM | 97.9 µM | > 100 µM | > 100 µM | – | – | – | – | – | – | – | –
C/C=C\C(CC(=O)NCCc1c[nH]c2ccccc12)CC(=O)OC (centres undefined) | > 100 µM | > 100 µM | – | > 100 µM | > 100 µM | > 100 µM | – | > 100 µM | – | > 100 µM | – | – | – | – | – | – | – | –
C/C(=C\COP(=O)(O)OP(=O)(O)O)CC/C=C(\C)CNc1ccccc1 | > 50 µM | > 50 µM | – | > 50 µM | > 50 µM | > 50 µM | > 50 µM | > 50 µM | – | 44.5 µM | – | – | – | – | – | – | – | –
COc1ccc(Nc2nc(NNC(=O)Cc3ccccc3)nc(NNC(=O)c3ccncc3)n2)cc1 | > 10 µM | > 10 µM | – | > 10 µM | – | > 10 µM | > 10 µM | > 10 µM | > 10 µM | > 10 µM | – | – | – | – | – | – | – | –
CCOC(=O)NC(OCc1ccccc1)(C(=O)OC)C(F)(F)F (centres undefined) | – | > 100 µM | > 100 µM | – | > 100 µM | > 100 µM | > 100 µM | – | > 100 µM | > 100 µM | – | – | – | – | – | – | – | –
Cc1ccc(Cl)c2c(=O)cc(-c3ccccc3)[nH]c12 | > 100 µM | > 100 µM | > 100 µM | > 100 µM | > 100 µM | > 100 µM | > 100 µM | 87.1 µM | > 100 µM | – | – | – | – | – | – | – | – | –
CCCCN(CCCC)C1=Nc2ccccc2-n2c(nnc2C(=O)OCC)C1 | > 100 µM | – | 40.9 µM | > 100 µM | 77.4 µM | > 100 µM | > 100 µM | > 100 µM | 56.3 µM | – | – | – | – | – | – | – | – | –
COc1ccc(C(=O)/C=C/c2ccc(OCCCOc3ccc(/C=C/C(=O)c4ccc(OC)c(OC)c4)cc3)cc2)cc1OC | > 100 µM | > 100 µM | > 100 µM | > 100 µM | > 100 µM | > 100 µM | > 100 µM | > 100 µM | > 100 µM | – | – | – | – | – | – | – | – | –
Cc1cccc(=O)c([O-])c1.Cc1cccc(=O)c([O-])c1.Cc1cccc(=O)c([O-])c1.Cc1cccc(=O)c([O-])c1.[Th+4] | > 78.5 µM | > 100 µM | 4.18 µM | > 100 µM | > 100 µM | > 100 µM | > 100 µM | > 77.7 µM | > 100 µM | – | – | – | – | – | – | – | – | –
CC1Cc2c(cc(N)nc2Br)NC1=O (centres undefined) | > 100 µM | > 100 µM | – | > 100 µM | > 100 µM | > 100 µM | > 100 µM | > 100 µM | > 100 µM | > 100 µM | – | – | – | – | – | – | – | –
COc1c(-c2ccc(F)cc2)oc2cc(O)cc(O)c2c1=O | 99.2 µM | 38 µM | 70.1 µM | 38.4 µM | – | > 100 µM | 83.6 µM | 64 µM | > 100 µM | – | – | – | – | – | – | – | – | –
O=C(NCCNCCO)N/N=C/c1ccccc1 | > 100 µM | > 100 µM | > 100 µM | – | > 100 µM | > 100 µM | > 100 µM | > 100 µM | – | – | – | – | – | – | – | – | – | –
COC(C[C@H]1CCCC[C@]1(O)/C(=C\CO[Si](C(C)C)(C(C)C)C(C)C)Sc1ccccc1)OC | > 100 µM | 60 µM | > 100 µM | > 100 µM | 55.3 µM | > 100 µM | > 100 µM | 98.9 µM | 46.5 µM | – | – | – | – | – | – | – | – | –
O=c1[nH]nc(N/N=C\c2ccc(Cl)cc2)c2ccccc12 | 30.6 µM | 34.9 µM | > 100 µM | – | 56.2 µM | 55.5 µM | 73 µM | 47.6 µM | 58.2 µM | – | – | – | – | – | – | – | – | –
COc1ccc(-c2cc(-c3ccc(OC)c(OC)c3)nc(SCCCC(=O)NO)n2)cc1 | – | 3.59 µM | 5.99 µM | 6.47 µM | 2.5 µM | 5.45 µM | – | 5.6 µM | 15.5 µM | > 100 µM | 3.8 µM | 0.553 µM | 1.64 µM | 1.47 µM | 0.587 µM | 1.97 µM | 1.34 µM | 0.552 µM
c1ccc2c(c1)ccc1nc(-c3ccc4c(c3)OCO4)c3c(c12)CCC3 | > 100 µM | > 100 µM | – | > 100 µM | – | > 100 µM | > 100 µM | > 100 µM | – | > 100 µM | – | – | – | – | – | – | – | –
COc1ccc2c3c([nH]c2c1)-c1nc2ccccc2c(=O)n1CC3 | > 25 µM | > 25 µM | > 25 µM | > 25 µM | – | > 25 µM | > 25 µM | > 25 µM | > 25 µM | – | – | – | – | – | – | – | – | –
